Usually mortality stands for the share of the test organisms that died. Low values mean a weak lethal effect, high ones a strong lethal effect. One may read the LC50 as the concentration that kills 50% of the test population.

Values after ≈ are worked out from the molar mass of the structure shown.

For series [1], the system named is ticks, fleas, formicids and termites. Put plainly: Persistence of biocidal activity, vials treated with 2% solutions (Example 5). It is filed as in vivo. The method, then:
(§1) Samples of the compounds listed below Were obtained from Dr. Karchesy, a co-inventor, and screened for biocidal activities against nymphal Ixodes scapularis. In this example, 2% acetone solutions (wt./vol.) of the compounds were applied to inner surfaces of 2-dram friction cap vials. Vials and caps were treated then allowed to dry for a minimum of 4 hours before placing 10 nymphs in each container. These same vials were used to challenge additional nymphs and adult I. scapularis ticks and adult Xenopsylla cheopis fleas through five weeks to observe any possible residual activity.
Persistence of biocidal activity was determined for nootkatone and valencene-11,12-epoxide by using the vials as treated with the 2% solutions of Example 2. […] At 11 weeks, the biocidal activity began to dissipate below the 100% mortality level.

The subject of another series is Ae. aegypti adults. In words: Mosquito bottle bioassay (Example 9). It is filed as in vivo. To be noted: Aedes aegypti, 24 h, 24 h exposure, 95% CI in parentheses.
Series [2] has as its system nymphal Ixodes scapularis. In words: Treated-vial biocidal screening, 2% acetone solutions (Example 2). It is filed as in vivo. The method, then: as §1
(§2) Numbers in parentheses refer to length of treatment in terms of hours (h) or weeks (wk). Data is presented in terms of number killed/number tested. For test periods longer than 24 hours, the treated vials were allowed to sit for the stated period after drying (72 h, 4 wk, or 5 wk) and each group of arthropods was added to the vials for the final 24 h of the test period.

Another series relates to Culex p. pipiens. In words: Mosquito susceptibility, serial dilutions (Example 8). To be noted: in vivo.
A further series deals with Aedes aegypti. Put plainly: Mosquito susceptibility (Example 8). The following applies: in vivo.
The test system of series [3] is adult Xenopsylla cheopis fleas. In words: Treated-vial biocidal screening, residual challenge (Example 2). It is filed as in vivo. To be noted: treated vials sat 5 wk; arthropods added for final 24 h. As for the experimental part: as §1, §2
The subject of series [4] is adult I. scapularis ticks. The series is described as above. To be noted: treated vials sat 4 wk; arthropods added for final 24 h. It is filed as in vivo, Ixodes scapularis. As for the experimental part:
as §1, §2

The next series has as its system nymphal I. scapularis. Put plainly: Baseline dose-mortality, method of Maupin and Piesman 1994 (Example 7). It is filed as in vivo. To be noted: nymphal ticks. The text has this:
Baseline dose-mortalities were established for nymphal I. scapularis for nootkatone and valencene-11,12-epoxide using the method described in Maupin, G. O., and Piesman, J., J. Med. Entomol., 31:319–21 (1994).
A comparison of relative potency was made with published data for carbaryl and permethrin (Maupin and Piesman, 1994) and Alaska yellow cedar essential oil (Panella et al., J. Med. Entomol. 34:340–45 (1997) is presented in Table 6.

`C[C@@H]1CCC=C2CCC(C3(C)CO3)C[C@]21C` (stereo partly shown) [Compound 13, valencene-11,12-epoxide] came in with a mortality in series [1] (24 hour exposure at each test through 10 weeks, each group of arthropods) of 100%. Also, in series [1] (vials treated with 2% solutions), the “time at which biocidal activity began to dissipate below the 100% mortality level” value is 11 weeks. In addition, the LC50 in the series with Ae. aegypti adults (read-out: LC50) turned out to be 2.95 mg/mL (≈ 13.4 mM). Also, the EC90 with Ae. aegypti adults (read-out: LC90 (the source's name)) worked out at 19.1 mg/mL (≈ 86.7 mM). Also, in series [2] (2% acetone solution (wt./vol.) dried in vials, 24 h), the “I. scapularis nymphs (24 h), number killed/number tested” value is 10/10. In addition, the “I. scapularis nymphs (72 h), number killed/number tested” value in series [2] (treated vials sat 72 h, arthropods added for final 24 h) is listed as 5/5. For the same molecule, in the series with Culex p. pipiens, the “C. pipiens LD50” value is listed as <4.5 × 10^−3 and the “mortality rate at the lowest tested dosage” value worked out at 64%. Besides, the “A. aegypti LD50” value in the series on Aedes aegypti is reported as <4.5 × 10^−3. Further, the “X. cheopis adults (5 wk), number killed/number tested” value in series [3] is 5/5. Besides, in series [4], the “I. scapularis adults (4 wk), number killed/number tested” value is reported as 5/5. In the series on nymphal I. scapularis, the “more effective than essential oil of Alaska yellow cedar” value is listed as “about 98%” and the “potency relative to essential oil of Alaska yellow cedar” value is given as “approximately 50 times”.

(Values after patent publication US7129271B2, “Compounds for pest control and methods for their use” (The United States of America as represented by the …, priority 2000, dated 2006).)
